Measurements as given in ChEMBL document CHEMBL1201862, “PubChem BioAssay data set” (2004).
Active and inactive are the calls of the source.

Experiments:
[1] = molecular target: Muscarinic acetylcholine receptor M1 (Rattus norvegicus, UniProt P08482); experiment: Discovery of novel allosteric modulators of the M1 muscarinic receptor: Agonist NMS binding at M1. [Related pubchem assays: 626 ]
[2] = molecular target: Muscarinic acetylcholine receptor M3 (Homo sapiens, UniProt P20309); experiment: (§1) Discovery of novel allosteric modulators of the M1 muscarinic receptor: Agonist NMS competition at M3. [Related pubchem assays: 1488 (Discovery of novel allosteric modulators of the M1 muscarinic receptor: Agonist Confirmation Assay), 626 (Discovery of Novel Allosteric Modulators of the M1 Muscarinic Receptor: Agonist Primary Screen)]; assay type: functional
[3] = molecular target: Muscarinic acetylcholine receptor M2 (Homo sapiens, UniProt P08172); experiment: Discovery of novel allosteric modulators of the M1 muscarinic receptor: Agonist NMS competition at M2. [Related pubchem assays: 626 (Discovery of Novel Allosteric Modulators of the M1 Muscarinic Receptor: Agonist Primary Screen), 1488 (Discovery of novel allosteric modulators of the M1 muscarinic receptor: Agonist Confirmation Assay)]; assay type: functional
[4] = molecular target: Muscarinic acetylcholine receptor M5 (Homo sapiens, UniProt P08912); experiment: as §1, with “M5.” for “M3.”; assay type: functional
Bcl-2-like protein 10 = molecular target: T1, Bcl-2-like protein 10 (Homo sapiens, UniProt Q9HD36); experiment: Concentration-response of Bcl-B inhibitors by biochemical FP with TR3 (AID 1243); assay type: functional
T1 sequence (Q9HD36 whole entry): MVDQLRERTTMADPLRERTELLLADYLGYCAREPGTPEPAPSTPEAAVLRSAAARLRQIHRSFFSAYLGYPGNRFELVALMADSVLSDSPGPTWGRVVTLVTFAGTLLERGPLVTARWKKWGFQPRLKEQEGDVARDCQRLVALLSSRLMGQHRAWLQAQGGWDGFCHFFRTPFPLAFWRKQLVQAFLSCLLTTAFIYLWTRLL

Beta-lactamase [5] = molecular target: Beta-lactamase (Salmonella choleraesuis (strain SC-B67), UniProt Q5J463); experiment: Epi-absorbance-based counterscreen for selective VIM-2 inhibitors: dose response biochemical high throughput screening assay to identify inhibitors of TEM-1 serine-beta-lactamase.
Beta Lactamase [6] = molecular target: T2, Beta Lactamase (Pseudomonas aeruginosa, UniProt Q932Y6); experiment: concentration-dependent VIM-2 enzyme inhibition – biochemical, epi-absorbance readout, selective inhibitors, dose response (AID 1919)
Beta Lactamase [7] = molecular target: T2, Beta Lactamase; experiment: VIM-2 CCF2 hydrolysis inhibition, assay artifact filter – biochemical, FRET readout, CCF2 substrate, artefact control for selective VIM-2 inhibitor project, dose response (AID 1926)
Leucine aminopeptidase = molecular target: T3, Leucine aminopeptidase (Plasmodium falciparum 3D7, UniProt Q8IL11); experiment: P. falciparum M17LAP inhibitors, primary screen, biochemical, fluorogenic H-Leu-NHMec substrate, 1536-well (AID 1619); assay type: functional
T3 sequence (Q8IL11 whole entry): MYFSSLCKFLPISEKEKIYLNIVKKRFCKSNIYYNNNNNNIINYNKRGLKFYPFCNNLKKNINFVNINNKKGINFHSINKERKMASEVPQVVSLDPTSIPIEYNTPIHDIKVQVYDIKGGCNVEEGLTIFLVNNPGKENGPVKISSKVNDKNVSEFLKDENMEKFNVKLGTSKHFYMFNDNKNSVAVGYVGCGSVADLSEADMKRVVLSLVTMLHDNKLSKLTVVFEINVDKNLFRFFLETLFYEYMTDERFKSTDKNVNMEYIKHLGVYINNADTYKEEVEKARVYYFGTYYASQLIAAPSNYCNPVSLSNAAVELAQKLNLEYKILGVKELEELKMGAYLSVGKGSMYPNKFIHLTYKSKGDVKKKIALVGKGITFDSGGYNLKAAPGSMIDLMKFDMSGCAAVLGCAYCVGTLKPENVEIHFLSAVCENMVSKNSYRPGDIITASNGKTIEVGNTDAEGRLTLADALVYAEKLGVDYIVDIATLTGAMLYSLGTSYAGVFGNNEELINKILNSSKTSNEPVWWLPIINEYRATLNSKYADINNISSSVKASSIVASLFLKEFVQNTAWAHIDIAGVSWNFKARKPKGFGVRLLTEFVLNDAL

Beta-lactamase [8] = molecular target: T4, Beta-lactamase (Pseudomonas aeruginosa, UniProt Q79MP6); experiment: […] counterscreen for selective VIM-2 inhibitors: dose response biochemical high throughput screening assay to identify inhibitors of IMP-1 metallo-beta-lactamase.
[9] = molecular target: T5, Probable nicotinate-nucleotide adenylyltransferase (Staphylococcus aureus (strain N315), UniProt P65502); assay type: functional, Staphylococcus aureus subsp. aureus N315;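 on IC50 Mean: confirmatory dose-response retesting of NadD inhibitor hits first found in an ultra-high-throughput screen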
[10] = molecular target: T5, Probable nicotinate-nucleotide adenylyltransferase; assay type: functional, Staphylococcus aureus subsp. aureus N315; settings: read-out: IC50_Mean
[11] = CCR5-tropic HIV-1 fusion blockers – cell-based, CCR5-tropic Env, dose response (AID 2279); assay type: functional
[12] = molecular target: T6, Calpain-2 catalytic subunit (Sus scrofa, UniProt P43367); experiment: m-calpain protease blockers, concentration series – biochemical, fluorogenic peptide substrate, dose response (AID 1420); assay type: functional
T6 sequence (P43367 whole entry): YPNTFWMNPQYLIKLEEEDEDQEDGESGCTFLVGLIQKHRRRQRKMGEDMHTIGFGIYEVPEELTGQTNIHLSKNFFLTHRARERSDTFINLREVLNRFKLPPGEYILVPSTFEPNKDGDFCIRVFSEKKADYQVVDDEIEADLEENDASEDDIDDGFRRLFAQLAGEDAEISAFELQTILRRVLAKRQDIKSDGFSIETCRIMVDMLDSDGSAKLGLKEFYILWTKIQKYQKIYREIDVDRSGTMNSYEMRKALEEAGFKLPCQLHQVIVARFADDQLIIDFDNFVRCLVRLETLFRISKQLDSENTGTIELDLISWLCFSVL

Beta-lactamase [13] = molecular target: T4, Beta-lactamase; experiment: inhibition of IMP-1 beta-lactamase activity – biochemical, epi-absorbance, selectivity assay for VIM-2 inhibitor project, dose response (AID 1920)
[14] = A Cell Based Secondary Assay To Explore Cytotoxicity of Compounds that Sensitize Mycobacterium Tuberculosis to Beta-Lactam Antibiotics.; assay type: functional
[15] = molecular target: 72 kDa type IV collagenase (Homo sapiens, UniProt P08253); experiment: Dose Response validation of uHTS RPN11 inhibitor hits using a MMP-2 Fluorescence assay.; assay type: functional
Prothrombin = Prothrombin (Bos taurus, UniProt P00735); experiment: thrombin protease inhibitors – biochemical, fluorescence polarization, uHTS hits, dose response (AID 602369); assay type: functional
[16] = molecular target: DNA (cytosine-5)-methyltransferase 1 (Homo sapiens, UniProt P26358); experiment: inhibition of DNA methylation by DNMT1 – biochemical, fluorescent molecular beacon, confirmation (AID 602386); assay type: functional
Aminopeptidase N = molecular target: T7, Aminopeptidase N (Plasmodium falciparum FcB1/Columbia, UniProt O96935); experiment: malaria alanyl aminopeptidase activity blockers – biochemical, fluorogenic H-Leu-NHMec substrate, 1536-well (AID 1445); parameters: species or system Plasmodium falciparum 3D7, 3D7
T7 sequence (O96935 whole entry): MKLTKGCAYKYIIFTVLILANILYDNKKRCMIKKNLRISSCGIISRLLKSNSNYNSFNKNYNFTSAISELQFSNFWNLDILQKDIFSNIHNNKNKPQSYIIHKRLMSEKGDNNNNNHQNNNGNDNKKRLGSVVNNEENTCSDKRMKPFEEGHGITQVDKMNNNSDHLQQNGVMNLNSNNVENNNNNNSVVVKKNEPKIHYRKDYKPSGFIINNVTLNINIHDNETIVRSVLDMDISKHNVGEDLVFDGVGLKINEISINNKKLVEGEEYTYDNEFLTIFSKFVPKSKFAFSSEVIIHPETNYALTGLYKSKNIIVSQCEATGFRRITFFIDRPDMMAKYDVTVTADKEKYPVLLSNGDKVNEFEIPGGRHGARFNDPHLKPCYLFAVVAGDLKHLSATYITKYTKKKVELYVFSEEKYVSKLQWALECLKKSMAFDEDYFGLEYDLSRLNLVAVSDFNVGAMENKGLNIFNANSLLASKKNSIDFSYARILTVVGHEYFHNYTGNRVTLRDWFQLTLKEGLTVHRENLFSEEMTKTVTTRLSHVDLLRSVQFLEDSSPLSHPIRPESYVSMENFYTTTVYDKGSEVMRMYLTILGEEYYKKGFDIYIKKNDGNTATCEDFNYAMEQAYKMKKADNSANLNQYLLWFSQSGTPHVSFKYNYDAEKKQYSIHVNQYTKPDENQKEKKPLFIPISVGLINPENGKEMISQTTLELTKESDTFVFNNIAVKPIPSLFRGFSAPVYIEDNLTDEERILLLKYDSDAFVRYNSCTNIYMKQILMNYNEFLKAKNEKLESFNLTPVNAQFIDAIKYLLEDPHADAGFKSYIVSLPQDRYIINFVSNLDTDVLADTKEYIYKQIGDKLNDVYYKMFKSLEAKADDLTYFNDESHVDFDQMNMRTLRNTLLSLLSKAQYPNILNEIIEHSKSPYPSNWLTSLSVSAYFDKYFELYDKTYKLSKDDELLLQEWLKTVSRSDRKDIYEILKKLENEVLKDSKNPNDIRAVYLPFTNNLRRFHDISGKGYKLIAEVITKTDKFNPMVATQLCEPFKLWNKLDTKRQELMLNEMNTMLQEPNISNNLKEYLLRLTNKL

[17] = molecular target: Induced myeloid leukemia cell differentiation protein Mcl-1 (Homo sapiens, UniProt Q07820); assay type: functional
[18] = molecular target: 26S proteasome non-ATPase regulatory subunit 14 (Homo sapiens, UniProt O00487); experiment: inhibition of proteasome subunit RPN11 – biochemical, fluorescence polarization, uHTS hits, confirmation (AID 602368); assay type: functional
[19] = antiviral protection against BTV-induced cell death – arbovirus, BSR cells, confirmation (AID 1250); assay type: functional;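 further: protection from viral cytopathic effect measured as cell viability by ATP luminescence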
[20] = molecular target: T8, Histone-lysine N-methyltransferase NSD2 (Homo sapiens, UniProt O96028); assay type: biochemical
T8 sequence (O96028 whole entry): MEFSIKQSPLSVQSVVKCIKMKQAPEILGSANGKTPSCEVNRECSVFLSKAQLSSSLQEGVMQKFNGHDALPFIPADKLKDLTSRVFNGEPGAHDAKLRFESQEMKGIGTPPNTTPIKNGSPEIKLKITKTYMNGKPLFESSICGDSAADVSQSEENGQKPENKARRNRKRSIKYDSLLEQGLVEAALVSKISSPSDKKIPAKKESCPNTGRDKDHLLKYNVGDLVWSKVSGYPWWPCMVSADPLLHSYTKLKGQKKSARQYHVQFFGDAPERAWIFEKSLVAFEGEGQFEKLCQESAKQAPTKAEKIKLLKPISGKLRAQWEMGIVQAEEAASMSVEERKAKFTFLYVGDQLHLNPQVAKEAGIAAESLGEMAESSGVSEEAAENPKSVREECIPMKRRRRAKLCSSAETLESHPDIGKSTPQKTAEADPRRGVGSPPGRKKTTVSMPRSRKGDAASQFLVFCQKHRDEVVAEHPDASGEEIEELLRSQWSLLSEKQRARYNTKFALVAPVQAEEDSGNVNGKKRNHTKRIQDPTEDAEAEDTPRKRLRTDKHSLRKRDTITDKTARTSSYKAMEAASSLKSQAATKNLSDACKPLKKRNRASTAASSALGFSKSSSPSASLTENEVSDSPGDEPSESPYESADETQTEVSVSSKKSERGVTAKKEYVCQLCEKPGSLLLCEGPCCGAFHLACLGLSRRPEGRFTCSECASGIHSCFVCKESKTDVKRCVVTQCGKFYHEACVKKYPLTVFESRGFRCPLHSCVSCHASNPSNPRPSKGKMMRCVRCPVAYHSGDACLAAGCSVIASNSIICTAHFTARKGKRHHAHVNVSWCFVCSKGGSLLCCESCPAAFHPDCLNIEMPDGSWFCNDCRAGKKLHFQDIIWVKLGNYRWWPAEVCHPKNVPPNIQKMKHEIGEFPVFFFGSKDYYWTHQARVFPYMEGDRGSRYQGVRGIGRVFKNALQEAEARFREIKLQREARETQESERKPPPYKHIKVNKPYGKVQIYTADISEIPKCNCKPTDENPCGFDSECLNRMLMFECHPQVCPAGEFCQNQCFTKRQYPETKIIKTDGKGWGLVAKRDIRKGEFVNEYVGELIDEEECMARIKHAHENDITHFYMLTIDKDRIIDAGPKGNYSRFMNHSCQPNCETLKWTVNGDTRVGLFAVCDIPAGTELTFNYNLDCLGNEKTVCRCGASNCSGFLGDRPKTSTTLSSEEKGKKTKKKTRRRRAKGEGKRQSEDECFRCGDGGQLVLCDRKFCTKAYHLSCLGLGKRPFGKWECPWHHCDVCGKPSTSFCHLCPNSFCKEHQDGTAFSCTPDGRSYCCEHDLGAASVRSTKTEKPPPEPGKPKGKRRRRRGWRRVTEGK

T5 sequence (P65502 whole entry): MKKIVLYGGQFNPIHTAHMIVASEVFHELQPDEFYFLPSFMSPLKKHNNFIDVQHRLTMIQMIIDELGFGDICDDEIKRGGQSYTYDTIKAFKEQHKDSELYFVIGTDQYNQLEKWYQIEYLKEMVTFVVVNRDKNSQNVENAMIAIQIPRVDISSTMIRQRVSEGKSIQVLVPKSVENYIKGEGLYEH
T4 sequence (Q79MP6 whole entry): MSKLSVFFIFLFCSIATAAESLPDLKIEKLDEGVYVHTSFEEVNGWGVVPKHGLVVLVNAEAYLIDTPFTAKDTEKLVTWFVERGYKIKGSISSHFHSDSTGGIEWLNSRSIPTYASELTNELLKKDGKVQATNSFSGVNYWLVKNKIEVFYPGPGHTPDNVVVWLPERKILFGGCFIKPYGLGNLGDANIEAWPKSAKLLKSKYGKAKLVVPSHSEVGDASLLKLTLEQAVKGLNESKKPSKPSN
T2 sequence (Q932Y6 whole entry): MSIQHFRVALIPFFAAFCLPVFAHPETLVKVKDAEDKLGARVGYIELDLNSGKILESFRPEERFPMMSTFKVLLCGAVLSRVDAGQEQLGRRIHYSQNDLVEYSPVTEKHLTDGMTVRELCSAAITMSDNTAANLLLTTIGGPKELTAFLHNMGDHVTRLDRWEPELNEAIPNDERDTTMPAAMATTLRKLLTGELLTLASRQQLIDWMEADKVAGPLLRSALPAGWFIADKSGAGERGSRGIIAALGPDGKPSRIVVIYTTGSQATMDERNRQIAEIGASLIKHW
Induced myeloid leukemia cell differentiation protein Mcl-1, sequence (Q07820 whole entry): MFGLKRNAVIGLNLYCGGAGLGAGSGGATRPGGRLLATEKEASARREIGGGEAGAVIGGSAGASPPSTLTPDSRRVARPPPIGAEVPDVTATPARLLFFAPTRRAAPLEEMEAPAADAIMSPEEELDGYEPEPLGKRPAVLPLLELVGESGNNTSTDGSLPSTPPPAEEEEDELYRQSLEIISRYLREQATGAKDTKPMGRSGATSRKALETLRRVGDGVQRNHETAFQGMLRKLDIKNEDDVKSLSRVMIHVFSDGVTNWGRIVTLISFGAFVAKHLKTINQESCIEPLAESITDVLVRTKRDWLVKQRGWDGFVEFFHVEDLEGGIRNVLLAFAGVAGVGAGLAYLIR
Muscarinic acetylcholine receptor M1, sequence (P08482 whole entry): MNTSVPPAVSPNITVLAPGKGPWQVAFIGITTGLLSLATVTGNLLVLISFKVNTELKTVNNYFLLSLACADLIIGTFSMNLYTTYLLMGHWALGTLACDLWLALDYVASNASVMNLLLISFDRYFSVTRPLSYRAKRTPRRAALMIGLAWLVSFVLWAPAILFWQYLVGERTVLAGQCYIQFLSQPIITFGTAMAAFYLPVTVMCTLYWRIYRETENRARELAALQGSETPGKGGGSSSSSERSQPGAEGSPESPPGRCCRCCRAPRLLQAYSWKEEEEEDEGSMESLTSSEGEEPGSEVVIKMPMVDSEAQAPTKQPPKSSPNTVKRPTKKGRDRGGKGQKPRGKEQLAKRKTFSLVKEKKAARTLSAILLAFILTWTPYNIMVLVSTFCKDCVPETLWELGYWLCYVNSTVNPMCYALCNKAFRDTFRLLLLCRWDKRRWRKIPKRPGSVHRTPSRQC
72 kDa type IV collagenase, sequence (P08253 whole entry): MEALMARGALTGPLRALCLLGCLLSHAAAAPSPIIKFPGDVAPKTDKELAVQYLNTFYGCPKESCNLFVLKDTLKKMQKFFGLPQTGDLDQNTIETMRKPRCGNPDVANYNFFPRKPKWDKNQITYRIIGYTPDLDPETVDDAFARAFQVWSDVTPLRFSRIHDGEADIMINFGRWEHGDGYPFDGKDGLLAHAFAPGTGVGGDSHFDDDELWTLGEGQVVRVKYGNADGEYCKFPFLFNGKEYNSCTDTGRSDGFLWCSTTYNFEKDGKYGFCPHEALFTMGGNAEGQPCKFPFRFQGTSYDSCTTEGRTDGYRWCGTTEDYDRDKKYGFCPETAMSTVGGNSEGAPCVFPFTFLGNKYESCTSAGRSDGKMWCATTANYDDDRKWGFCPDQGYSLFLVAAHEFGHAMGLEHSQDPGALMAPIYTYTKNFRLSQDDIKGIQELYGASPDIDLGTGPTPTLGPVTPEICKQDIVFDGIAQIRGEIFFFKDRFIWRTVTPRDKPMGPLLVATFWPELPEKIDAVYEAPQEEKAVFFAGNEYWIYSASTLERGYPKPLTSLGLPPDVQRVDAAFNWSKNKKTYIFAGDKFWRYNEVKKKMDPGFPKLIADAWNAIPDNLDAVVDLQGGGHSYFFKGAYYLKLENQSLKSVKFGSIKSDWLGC
Muscarinic acetylcholine receptor M5, sequence (P08912 whole entry): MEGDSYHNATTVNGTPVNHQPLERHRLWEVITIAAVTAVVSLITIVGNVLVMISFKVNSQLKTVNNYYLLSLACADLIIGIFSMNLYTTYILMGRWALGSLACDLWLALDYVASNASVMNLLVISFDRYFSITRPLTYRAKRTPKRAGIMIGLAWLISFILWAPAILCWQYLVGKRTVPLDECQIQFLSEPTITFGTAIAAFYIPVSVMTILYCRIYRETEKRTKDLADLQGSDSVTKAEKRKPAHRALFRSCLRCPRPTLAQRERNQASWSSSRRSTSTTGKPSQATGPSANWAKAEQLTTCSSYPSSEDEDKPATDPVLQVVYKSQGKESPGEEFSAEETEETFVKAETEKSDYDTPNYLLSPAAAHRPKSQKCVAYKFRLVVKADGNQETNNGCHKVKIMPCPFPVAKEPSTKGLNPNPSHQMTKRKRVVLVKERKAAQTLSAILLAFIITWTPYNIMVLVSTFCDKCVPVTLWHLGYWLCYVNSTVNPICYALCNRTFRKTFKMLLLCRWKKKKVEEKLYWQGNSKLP
DNA (cytosine-5)-methyltransferase 1, sequence (P26358 whole entry): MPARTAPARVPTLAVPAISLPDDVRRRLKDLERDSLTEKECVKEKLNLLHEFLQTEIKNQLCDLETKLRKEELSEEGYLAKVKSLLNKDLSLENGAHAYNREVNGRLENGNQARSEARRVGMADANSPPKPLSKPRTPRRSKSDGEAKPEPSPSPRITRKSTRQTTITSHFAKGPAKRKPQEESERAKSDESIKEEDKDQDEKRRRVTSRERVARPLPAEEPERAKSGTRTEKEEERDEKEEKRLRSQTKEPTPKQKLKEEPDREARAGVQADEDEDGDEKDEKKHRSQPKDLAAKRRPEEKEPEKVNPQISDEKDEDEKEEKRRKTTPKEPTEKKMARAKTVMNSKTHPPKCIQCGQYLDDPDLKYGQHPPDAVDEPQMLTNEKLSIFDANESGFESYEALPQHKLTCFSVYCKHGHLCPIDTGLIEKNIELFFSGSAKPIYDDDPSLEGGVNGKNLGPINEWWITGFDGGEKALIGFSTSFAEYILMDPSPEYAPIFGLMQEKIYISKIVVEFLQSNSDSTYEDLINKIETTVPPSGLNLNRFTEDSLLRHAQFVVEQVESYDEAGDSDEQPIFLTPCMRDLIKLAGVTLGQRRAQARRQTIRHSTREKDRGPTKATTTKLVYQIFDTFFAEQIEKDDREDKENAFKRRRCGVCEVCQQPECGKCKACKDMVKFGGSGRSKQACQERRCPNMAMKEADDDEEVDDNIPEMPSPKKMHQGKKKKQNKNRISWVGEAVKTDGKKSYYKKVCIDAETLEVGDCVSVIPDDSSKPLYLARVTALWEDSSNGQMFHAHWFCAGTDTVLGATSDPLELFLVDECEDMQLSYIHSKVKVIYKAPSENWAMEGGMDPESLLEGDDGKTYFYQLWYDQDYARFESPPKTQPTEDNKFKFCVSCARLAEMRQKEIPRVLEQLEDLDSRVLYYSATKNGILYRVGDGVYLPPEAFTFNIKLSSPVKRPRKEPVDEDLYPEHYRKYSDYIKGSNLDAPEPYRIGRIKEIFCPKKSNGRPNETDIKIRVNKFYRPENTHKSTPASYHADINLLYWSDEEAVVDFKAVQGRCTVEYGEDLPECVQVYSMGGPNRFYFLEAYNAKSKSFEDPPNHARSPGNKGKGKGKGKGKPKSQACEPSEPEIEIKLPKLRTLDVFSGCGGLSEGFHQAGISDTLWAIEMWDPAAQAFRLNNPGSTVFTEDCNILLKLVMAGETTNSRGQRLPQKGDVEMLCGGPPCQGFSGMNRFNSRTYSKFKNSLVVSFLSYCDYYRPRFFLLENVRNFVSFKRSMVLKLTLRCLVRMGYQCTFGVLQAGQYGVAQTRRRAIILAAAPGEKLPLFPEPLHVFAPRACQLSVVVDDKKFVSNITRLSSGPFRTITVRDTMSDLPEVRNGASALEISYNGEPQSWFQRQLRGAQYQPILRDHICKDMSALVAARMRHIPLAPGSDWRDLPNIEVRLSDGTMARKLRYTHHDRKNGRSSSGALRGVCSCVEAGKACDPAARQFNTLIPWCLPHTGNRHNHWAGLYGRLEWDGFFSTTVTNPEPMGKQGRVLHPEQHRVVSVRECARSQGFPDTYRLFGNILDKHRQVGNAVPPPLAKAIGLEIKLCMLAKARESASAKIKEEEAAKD
Muscarinic acetylcholine receptor M3, sequence (P20309 whole entry): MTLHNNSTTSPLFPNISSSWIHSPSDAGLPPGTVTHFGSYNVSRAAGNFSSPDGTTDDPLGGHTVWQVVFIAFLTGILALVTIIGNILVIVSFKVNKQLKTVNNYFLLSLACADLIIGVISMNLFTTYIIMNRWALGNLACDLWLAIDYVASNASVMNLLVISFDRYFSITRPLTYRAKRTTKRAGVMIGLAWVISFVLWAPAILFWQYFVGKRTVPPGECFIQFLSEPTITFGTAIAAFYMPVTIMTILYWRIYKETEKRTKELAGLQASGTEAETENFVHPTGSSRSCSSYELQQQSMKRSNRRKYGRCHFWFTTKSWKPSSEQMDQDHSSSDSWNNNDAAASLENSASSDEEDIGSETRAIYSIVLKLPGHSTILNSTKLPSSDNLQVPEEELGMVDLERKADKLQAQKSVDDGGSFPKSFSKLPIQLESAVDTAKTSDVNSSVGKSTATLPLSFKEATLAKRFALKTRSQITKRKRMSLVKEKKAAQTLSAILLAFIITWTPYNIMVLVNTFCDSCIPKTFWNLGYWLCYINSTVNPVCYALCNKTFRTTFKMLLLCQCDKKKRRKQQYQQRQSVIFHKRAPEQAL

## CCOC(=O)N1CCC(NCCNC(=O)c2cccs2)CC1
[1]
  EC50: 14.4 µM (inconclusive)
[2]
  EC50: 77 µM (inconclusive)
[3]
  EC50: 48.9 µM (inconclusive)
[4]
  EC50: 88.4 µM (inconclusive)

## O=C1NN(c2ccc(F)c(Cl)c2)C(=O)/C1=C\c1ccco1
Bcl-2-like protein 10
  EC50: 33.4 µM (active)

## O=C(O)c1cccc(NC(=S)N/N=C/c2ccccc2OCc2cccc(Br)c2)c1
Beta-lactamase [5]
  IC50: > 59.6 µM (inactive)
Beta Lactamase [6]
  IC50: 9.15 µM (active)
Beta Lactamase [7]
  IC50: 1.16 µM (active)
Leucine aminopeptidase
  IC50: 15.8 µM (active)
Beta-lactamase [8]
  IC50: > 59.6 µM (inactive)
[9]
  IC50: 5.97 µM (active)
[10]
  IC50: 15.8 µM (active)
[11]
  IC50: 44.4 µM (active)
[12]
  IC50: > 50 µM (not active)
Beta-lactamase [13]
  IC50: > 59.6 µM (inactive)

## CCOc1ccccc1C(=O)Nc1cccc(-c2ccc3nncn3n2)c1
[14]
  CC50: > 40 µM (active)

## Cc1ccc(-n2cccc2/C=C2/C(=N)N3C(=NC2=O)SN=C3S(C)(=O)=O)cc1Cl
[15]
  IC50: > 100 µM (inactive)
Prothrombin
  IC50: 21.1 µM (active)
[16]
  IC50: 7.72 µM (active)
Aminopeptidase N
  IC50: 15 µM (active)
[17]
  IC50: 1.86 µM (active)
[18]
  IC50: 13.4 µM (active)
[19]
  IC50: 28.9 µM (active)
[20]
  AC50: 8.75 µM (active)
